Source: patent publication US10172362B2, “Biofilms, components and methods of use to reduce biofouling and contamination” (THE PENN STATE RESEARCH FOUNDATION, priority 2015, dated 2019)

Key:
[1] = Rejection experiments with NF90 membranes (no biofilm); assay type: physicochemical; conditions: 1 mM and 10 mM feed in 5 mM NaCl (pH 9.0), 30 min
Procedure: Beneficial Biofilm Degrades Epichlorohydrin. Epichlorohydrin is an emerging water contaminant for which treatment techniques are not well studied. […] Measurements were taken 30 min after permeation began. Feed was in 5 mM NaCl (pH 9.0). Furthermore, when grown on the NF90 membrane, the beneficial biofilm that produces EH degraded epichlorohydrin by more than 39±4% in single pass batch filtration (See FIGS. 29 and 30). […] Biofilms grown for 24 h on NF90 membranes were challenged with 10 mM epichlorohydrin in 5 mM NaCl feed solution (pH 9). The left and adjacent right bars indicate the molar removal of epichlorohydrin (%) at 20 min and 30 min respectively, after starting filtration. The removal of epichlorohydrin by adsorption to cellular biomass was estimated using a dead cell control experiment. EH− is E. coli TG1/pBdcAE50Q-lasI-lasR/pBNos and EH+ is E. coli TG1/pBdcAE50Q-lasI-lasR/pBNos-echA. Dead cells were obtained by autoclaving overnight cultures of the EH+ strain. The error bars are standard deviation for three independent colonies.

[2] = test system: biofilm dispersal; conditions: cited from earlier work

## ClCC1CO1 (centres unmarked) [Epichlorohydrin]
[1]
  passage through NF90 membrane: passes through the membrane used

B1: BdcA E50Q variant (protein, UniProt P39333 1-237, looked up, variant E50Q)
Cyclic-di-GMP-binding biofilm …: MGAFTGKTVLILGGSRGIGAAIVRRFVTDGANVRFTYAGSKDAAKRLAQQTGATAVFTDSADRDAVIDVVRKSGALDILVVNAGIGVFGEALELNADDIDRLFKINIHAPYHASVEAARQMPEGGRILIIGSVNGDRMPVAGMAAYAASKSALQGMARGLARDFGPRGITINVVQPGPIDTDANPANGPMRDMLHSLMAIKRHGQPEEVAGMVAWLAGPEASFVTGAMHTIDGAFGA
[2]
  higher levels of biofilm dispersal: six-fold higher
